Assay results reported in patent EP0736009B1, “N-OXIDES OF 4-ARYLPIPERAZINES AND 4-ARYLPIPERIDINES AS ANTIPSYCHOTIC DRUGS” (ORTHO PHARMACEUTICAL CORPORATION, priority 1993, dated 1995).

Experiments:
[1] = biological target: T1, D-2 (dopamine-2) receptors (Rattus norvegicus, UniProt P61169); assay: Dopamine D2 receptor binding assay (3H-spiperone, striatal P2 fraction); set-up: species or system male, Wistar rats; conditions: rat striatum P2 fraction; 3H-spiperone 0.05 nM; 45 min at 37°C
T1 construct: The D2 assay employed a P2 fraction from the striatum; from tissue; host or cells: rat striatum, P2 fraction (synaptosomal membranes)
T1 sequence (P61169 whole entry): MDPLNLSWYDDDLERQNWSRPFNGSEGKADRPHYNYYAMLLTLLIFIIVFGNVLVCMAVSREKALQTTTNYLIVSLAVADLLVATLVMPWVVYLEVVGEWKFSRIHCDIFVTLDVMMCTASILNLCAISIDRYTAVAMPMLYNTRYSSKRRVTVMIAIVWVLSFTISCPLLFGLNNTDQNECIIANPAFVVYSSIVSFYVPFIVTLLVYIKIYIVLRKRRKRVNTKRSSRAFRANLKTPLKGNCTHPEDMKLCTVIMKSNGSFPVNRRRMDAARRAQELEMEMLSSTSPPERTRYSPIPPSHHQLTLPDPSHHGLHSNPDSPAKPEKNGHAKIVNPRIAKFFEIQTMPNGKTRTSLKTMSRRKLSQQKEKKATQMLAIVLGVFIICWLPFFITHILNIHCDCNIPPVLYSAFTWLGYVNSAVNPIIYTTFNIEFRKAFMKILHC
Description: The antipsychotic activity of the compounds of the invention may be determined by the Block of Conditioned Avoidance Responding (Rat) test (CAR), references being Cook, L. and E. Weidley in Ann. N.Y. Acad. Sci., 1957, 6, 740-752, and Davidson, A.B. and E. Weidley in Life Sci., 1976, 18, 1279-1284. A reading of -20% in the CAR test was generally taken to represent a minimum value for a compound to be designated as active at a given dose. In addition, the affinity of the compounds for several receptors found in the central nervous system was evaluated; the affinity for the D-2 (dopamine-2) receptors is also listed in Table 1. As modulation of this receptor is generally recognized to be beneficial in the treatment of schizophrenia (G. P. Reynolds Trends Pharmacol. Sci. 1992, 13, 116), affinity for this receptor indicates potential utility for the compounds. […].
The dopamine D2 binding activity of compounds was determined using a P2 fraction (synaptosomal membranes) prepared from male, Wistar rats. The D2 assay employed a P2 fraction from the striatum, the ligand ^3H-spiperone at a concentration of 0.05 nM, and 1 mM haloperidol as a blank determinant. […].
The data from this assay were analyzed by calculating the percent inhibition of the binding of the tritiated ligands by given concentrations of the test compound. KI values, where given, were obtained from the logit analysis of concentration-inhibition curves.

Rat = assay: Block of Conditioned Avoidance Responding (Rat) test (CAR); type: in vivo, Male, Fischer 344 rats; conditions: for Loss of escape: % failures to escape (group mean), measure of general sedative potential, at CAR 15 mg/kg ip; for % CAR at 15 mg/kg: mean % change in CAR vs vehicle pretreatment day, 15 mg/kg ip, negative number = blockade of CAR
Description: The antipsychotic activity of the compounds of the invention may be determined by the Block of Conditioned Avoidance Responding (Rat) test (CAR), references being Cook, L. and E. Weidley in Ann. N.Y. Acad. Sci., 1957, 6, 740-752, and Davidson, A.B. and E. Weidley in Life Sci., 1976, 18, 1279-1284. A reading of -20% in the CAR test was generally taken to represent a minimum value for a compound to be designated as active at a given dose. In addition, the affinity of the compounds for several receptors found in the central nervous system was evaluated; the affinity for the D-2 (dopamine-2) receptors is also listed in Table 1. As modulation of this receptor is generally recognized to be beneficial in the treatment of schizophrenia (G. P. Reynolds Trends Pharmacol. Sci. 1992, 13, 116), affinity for this receptor indicates potential utility for the compounds. […] Block of Conditioned Avoidance Responding (Rat) Apparatus: Rat operant chambers, housed within sound attenuated booths, both from […] Instruments Ltd., were used in this test. The test chamber (8" H x […] D) is constructed of aluminum and plexiglass with floor grid bars of stainless-steel (1/8" O.D.) spaced 9/16" apart. A stainless-steel operation level 1-1/2" wide projects 3/4" into the chamber and is positioned 2-2/8" above the grid floor. The shock stimulus is delivered via the grid floor by a Coulbourn Instruments solid state module. The parameters of the test and the collection of data are controlled automatically. Training: Male, Fischer 344 rats obtained from Charles River (Kingston, NY) weighing more than 200 g, are individually housed with chow and water provided ad libitum. The rats are trained for two weeks to approach criterion levels in the avoidance test (90% avoidance rate). One-hour training sessions are run at about the same time each day for four or five days a week. The training session consists of 120 trials, with the conditioned stimuli presented every 30 sec. A trial begins with presentation of the conditioned stimuli (a light and a tone). If the rat responds by depressing the operant lever during the 15-second presentation of the conditioned stimuli, the trial is terminated and the animal is credited with a CAR. Failure to respond during the conditioned stimuli causes the presentation of the unconditioned stimulus (UCS), a 0.7 mA shock which is accompanied by a light and tone for five seconds. If the rat depressed the lever within the ten-second period, the shock and trial are terminated and an escape response recorded. If the rat fails to depress the lever during the UCS (shock), the trial is terminated after ten seconds of shock and the absence of a response is scored as a failure to escape. […] presses have no effect. If a rat performs at the 90% CAR level for two weeks, it is then run twice a week on the test schedule (see below) until baseline performance stabilized. Before any drug is administered, two weeks of CAR at a rate of 90% or better is required. The percent change in CAR on the drug treatment day compared to vehicle pretreatment day is the key measure. The percent change (% change) in CAR is determined using the following formula: % change CAR = ((% CAR for Day 2/% CAR for Day 1) x 100)-100 [formula] A negative number indicates a blockade of CAR, whereas a positive number would indicate increased CAR. The test results are reported as the mean % change for the group of rats. Failure to escape, a measure of the general sedative potential of the compound, was calculated for each animal as follows: % Failures = # of Failures to Escape/# of trials [formula] The % failures, viz., loss of escape, is also reported as a group mean. Failures to escape are monitored closely and a session is terminated if ten failures occurred. ED50 values and 95% confidence limits are calculated using linear regression analysis. […]

Ki [1] [nM] | Compound | Loss of escape (Rat) [%] | % CAR at 15 mg/kg (Rat) [%]
371 | CC(C)Oc1ccccc1C1CC[N+]([O-])(Cc2cccc(C(=O)N3[C@H](C)CCC[C@@H]3C)c2)CC1 (relative stereo) [Compound 3, 1-[3-[[4-[2-(1-Methylethoxy)phenyl]-1-piperidinyl-1-oxide]methyl]benzoyl]-cis-2.6-dimethylpiperidine] | 0.4 | -37.7
140 | CC(C)Oc1ccccc1[N+]1([O-])CCN(Cc2cccc(C(=O)N3CCCCC3)c2)CC1 [Compound 1, 1-[3-[[4-[2-(1-Methylethoxy)ehenyl]-4-oxide-1-piperazinyl]methyl]benzoyl]piperidine] | 44.8 | -91.7
355 | CC(C)Oc1ccccc1N1CC[N+]([O-])(Cc2cccc(C(=O)N3CCCCC3)c2)CC1 [Compound 2, 1-[3-[[4-[2-(1-Methylethoxy)phenyl]-1-piperazinyl-1-oxide]methyl]benzoyl]piperidine] | 31.5 | -87.6
